Data on 2 molecules can be found in patent EP4796538A1, “NOVEL QUINOXALINE COMPOUNDS, MANUFACTURING METHOD THEREOF, AND USES THEREOF” (Gachon University of Industry-Academic Cooperation …, priority 2023, dated 2025).

Test [1] relates to BaF3 KIF5B-RET (G810R). Briefly: Cell proliferation inhibition, Cell Counting Kit-8, Ba/F3 cell line. The test is classed as cell-based, rodent. The following applies: Mus musculus, 72 hours incubation, read-out: Cell Viability of BaF3 Cell lines (IC50 in uM) KIF5B-RET (G810R). (Tetrazolium assays rely on reduction of a dye to a coloured formazan, in cell work by metabolically active cells.)
Description: As a control compound, selpercatinib, a known RET inhibitor, was treated to calculate the IC50 values.

Test [2] deals with A-549. Briefly: Cell proliferation inhibition, Cell Counting Kit-8, non-small cell lung cancer cell line. It is filed as cell-based. The following applies: A-549 cell line; 72 hours incubation; test concentration not given.
Test [3] deals with T1, KIF5B-RET (Homo sapiens, UniProt P07949).
T1 sequence (P07949 713-1114): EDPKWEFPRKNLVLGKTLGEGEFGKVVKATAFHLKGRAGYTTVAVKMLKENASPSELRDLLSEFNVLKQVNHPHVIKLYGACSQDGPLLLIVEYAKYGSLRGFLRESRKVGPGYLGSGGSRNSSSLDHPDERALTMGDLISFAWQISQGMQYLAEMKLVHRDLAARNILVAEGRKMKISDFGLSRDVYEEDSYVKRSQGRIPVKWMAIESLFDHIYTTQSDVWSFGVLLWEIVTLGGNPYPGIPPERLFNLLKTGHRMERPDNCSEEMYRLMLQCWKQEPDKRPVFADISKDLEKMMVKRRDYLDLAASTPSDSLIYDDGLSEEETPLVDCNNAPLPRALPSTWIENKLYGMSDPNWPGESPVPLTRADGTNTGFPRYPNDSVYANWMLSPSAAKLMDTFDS
T1 sequence (P33176 2-575 partner): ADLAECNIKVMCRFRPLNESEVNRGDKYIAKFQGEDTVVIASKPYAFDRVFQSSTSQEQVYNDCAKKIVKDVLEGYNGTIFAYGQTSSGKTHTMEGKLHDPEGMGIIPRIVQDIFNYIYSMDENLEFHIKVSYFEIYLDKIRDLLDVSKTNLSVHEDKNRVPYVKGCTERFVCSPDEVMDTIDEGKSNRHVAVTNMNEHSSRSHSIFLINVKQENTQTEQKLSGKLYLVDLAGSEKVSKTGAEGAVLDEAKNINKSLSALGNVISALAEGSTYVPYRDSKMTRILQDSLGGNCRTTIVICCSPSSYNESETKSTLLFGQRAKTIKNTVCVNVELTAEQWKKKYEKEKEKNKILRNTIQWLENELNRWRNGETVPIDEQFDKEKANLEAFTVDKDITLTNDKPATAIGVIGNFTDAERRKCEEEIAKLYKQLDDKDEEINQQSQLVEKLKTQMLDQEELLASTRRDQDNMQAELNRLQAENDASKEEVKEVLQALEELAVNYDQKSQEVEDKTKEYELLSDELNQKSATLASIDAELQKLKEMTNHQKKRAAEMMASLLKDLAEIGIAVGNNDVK
In words: Kinase panel inhibition, radiolabeled [γ-33P] ATP (Reaction Biology Corp). The following applies: read-out: Enzymatic inhibitory activity (IC50) nM KIF5B-RET. The test is classed as biochemical. On the procedure:
The inhibitory activities of the example and intermediate compounds of the present invention against a kinase panel (Reaction Biology Corp) of RET and RET mutations (RET(G810R), RET(V804M), KIF5B-RET, RET(V804M)-KIF5B, RET-CCDC6, RET-NCOA4, and RET(G810S/M918T)) were investigated. Using radiolabeled ATP ([γ-33P] ATP), the degree to which the substrate was replaced by a 33P-phosphorylated substrate was measured, and changes in kinase activity were determined from the measurement of the radiolabeled phosphorylated substrate. The example and intermediate compounds were tested at concentrations of 0.1 µM to 30 µM against ATP concentrations of 1 µM or 10 µM. The residual activity (%) of the example and intermediate compounds after inhibition against each kinase panel is shown in Tables 3 to 5 below. […]

The target of test [4] is T2, RET(V804M)-KIF5B (Homo sapiens, UniProt P07949, V804M).
T2 sequence (P07949 713-1114 V804M): T1 sequence (P07949 713-1114) with V92M
T2 sequence (P33176 2-575 partner): T1 sequence (P33176 2-575 partner)
The description is as above. It is filed as biochemical.

Test [5] has as its target T3, RET(G810R) (Homo sapiens, UniProt P07949, G810R).
T3 construct: purchased Reaction Biology Corp
Described as above. It is filed as biochemical. To be noted: for remaining activity at 1 µM: compound at 1 uM, ATP 10 µM, read-out: % Enzyme Activity (relative to DMSO controls) G810R; for IC50: read-out: Enzymatic inhibitory activity (IC50) nM G810R.

Test [6] addresses T4, RET(V804M) (Homo sapiens, UniProt P07949, V804M).
T4 construct: purchased Reaction Biology Corp
The test is described as above. It is filed as biochemical. To be noted: for remaining activity at 1 µM: compound at 1 uM, ATP 10 µM, read-out: % Enzyme Activity (relative to DMSO controls) V804M; for IC50: read-out: Enzymatic inhibitory activity (IC50) nM V804M.

The target in test [7] is T5, RET (Homo sapiens, UniProt P07949).
T5 construct: purchased Reaction Biology Corp
T5 sequence (P07949 29-1114): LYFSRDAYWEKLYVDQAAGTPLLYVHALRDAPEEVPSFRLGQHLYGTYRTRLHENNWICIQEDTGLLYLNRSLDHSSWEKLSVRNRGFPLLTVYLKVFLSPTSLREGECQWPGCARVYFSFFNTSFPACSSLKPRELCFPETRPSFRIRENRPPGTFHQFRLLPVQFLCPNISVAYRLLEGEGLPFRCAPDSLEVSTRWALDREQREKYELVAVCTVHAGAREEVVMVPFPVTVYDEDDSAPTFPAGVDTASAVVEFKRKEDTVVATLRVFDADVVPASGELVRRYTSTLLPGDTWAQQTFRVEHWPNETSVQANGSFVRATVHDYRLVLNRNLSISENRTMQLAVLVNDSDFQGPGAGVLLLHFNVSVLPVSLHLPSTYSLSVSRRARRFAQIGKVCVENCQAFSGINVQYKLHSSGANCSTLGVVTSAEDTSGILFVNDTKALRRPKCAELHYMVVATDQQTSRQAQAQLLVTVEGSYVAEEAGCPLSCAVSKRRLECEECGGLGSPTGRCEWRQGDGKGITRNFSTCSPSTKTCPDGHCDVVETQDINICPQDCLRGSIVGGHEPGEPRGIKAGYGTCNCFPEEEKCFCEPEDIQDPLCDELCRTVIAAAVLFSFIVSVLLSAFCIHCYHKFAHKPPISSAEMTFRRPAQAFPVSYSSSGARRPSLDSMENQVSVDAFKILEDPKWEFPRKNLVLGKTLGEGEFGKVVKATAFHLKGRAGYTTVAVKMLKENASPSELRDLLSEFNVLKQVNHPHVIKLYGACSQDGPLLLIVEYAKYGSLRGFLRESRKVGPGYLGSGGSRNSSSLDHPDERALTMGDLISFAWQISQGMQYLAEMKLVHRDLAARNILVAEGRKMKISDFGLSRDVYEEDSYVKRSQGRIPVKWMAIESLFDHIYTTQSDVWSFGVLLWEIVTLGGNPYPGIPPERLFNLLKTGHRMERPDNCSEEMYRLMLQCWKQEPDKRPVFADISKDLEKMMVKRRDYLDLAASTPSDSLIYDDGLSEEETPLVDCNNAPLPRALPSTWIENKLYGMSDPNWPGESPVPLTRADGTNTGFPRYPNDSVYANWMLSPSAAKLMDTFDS
The test is described as above. It is filed as biochemical. To be noted: for remaining activity at 1 µM: compound at 1 uM, ATP 10 µM, read-out: % Enzyme Activity (relative to DMSO controls) RET; for IC50: read-out: Enzymatic inhibitory activity (IC50) nM RET.

Test [8] has as its system BaF3-RET(V804M). In words: Cell proliferation inhibition (GI50), Cell Counting Kit-8, Ba/F3 cell line. It is filed as cell-based, rodent. To be noted: Mus musculus, BaF3; 72 hours incubation; Cell Counting Kit-8; read-out: GI50 of BaF3-RET(V804M). On the procedure: To evaluate the inhibitory activity of the compounds represented by Formula I or Formula IV according to the present invention against RET mutation-driven cell growth in the Ba/F3 cell line and against cell growth in the non-small cell lung cancer cell line A-549, the following experiment was performed.
Each cell line was seeded in a 96-well plate at 1×10^4 cells/90 µL/well, and 10 µL/well of culture medium containing each example and intermediate compound or DMSO control at 9 concentrations (1 nM to 100 µM) prepared by 3-fold serial dilutions was added to achieve a final concentration of 0 to 100 µM, followed by incubation for 72 hours in a 37°C, 5% CO2 incubator. After 72 hours of incubation, the compound-treated plates were removed, and Cell Counting Kit-8 solution was added at 10 µL/well and mixed well. The plates were then incubated for 2 hours in a CO2 incubator at 37°C, and the absorbance was measured at 450 nm using a microplate reader.
In addition, the data were expressed as a percentage relative to vehicle-treated cells, and GI50 values were calculated using GraphPad Prism 8.0 (GraphPad Software Inc., San Diego), and the results are shown in Table 8 below. As a control compound, ponatinib, a known RET inhibitor, was treated to calculate the GI50 values.

Where a chain is given by its changes, count along the chain named.

T4 sequence (P07949 29-1114 V804M): as the sequence (P07949 29-1114) above, with V776M counted along it
T3 sequence (P07949 29-1114 G810R): as the sequence (P07949 29-1114) above, with G782R counted along it

Broadly, the IC50 is the concentration that gives 50% inhibition. By GI50 is commonly meant the concentration at which growth is held to half of that of the control. Turning to `Nc1cc(-c2ccc(N3CC(Oc4cccc(F)c4)C3)nc2)c2nccnc2c1` [Example 1, 8-(6-(3-(3-fluorophenoxy)azetidin-1-yl)pyridin-3-yl)quinoxalin-6-amine], the IC50 was 0.88 µM in test [1]; 2.2 nM in test [3]; 6.71 nM in test [4]; 275 nM in test [5]; 4.2 nM in test [6]; 3.9 nM in test [7]. The “Cell Proliferation (% of control)” value in test [2] is 34.36%. For the same molecule, the remaining activity at 1 µM stood at 24.5% in test [5], 1.72% in test [6] and 0.51% in test [7]. Moreover, the GI50 in test [8] worked out at 1460 nM.
Consider `CCNc1cc(-c2ccc(N3CC(Oc4cccc(F)c4)C3)nc2)c2nccnc2c1` [Example 3, N-ethyl-8-(6-(3-(3-fluorophenoxy)azetidin-1-yl)pyridin-3-yl)quinoxalin-6-amine], for which the IC50 in test [1] was 1.09 µM; in test [3], less than 0.5 nM; in test [4] it was 1.36 nM; in test [5], 142 nM; in test [6] it was 0.78 nM; in test [7], 0.57 nM. The “Cell Proliferation (% of control)” value in test [2] turned out to be 25.06%. Moreover, the remaining activity at 1 µM worked out at 11.4% in test [5], 0.63% in test [6] and 0.14% in test [7]. Also, in test [8], the GI50 is 661 nM.
